# What was measured:
# HIV strains/subtypes = conditions: cited from earlier work
# [1] = system: pseudotyped virus (NL4-3 provirus with various HIV gp160 envelope clones); test: Pseudotyped virus assay (PSV), luciferase reporter, U373 cells expressing human CD4 and CXCR4 or CCR5; type: cell-based
# From the text: A pseudotyped virus assay (PSV) was used to assess the potency of various HIV entry inhibitors. Replication defective virus was produced by co-transfection of a plasmid containing an NL4-3 provirus [containing a mutation in the envelope open reading frame (ORF) and a luciferase reporter gene replacing the nef ORF] and a CMV-promoter expression plasmid containing an ORF for various HIV gp160 envelope clones. The harvested virus was stored at −80C in small aliquots and the titer of the virus measured to produce a robust signal for antiviral assays.
# The PSV assay was performed by using U373 cells stably transformed to express human CD4, the primary receptor for HIV entry and either human CXCR4 or human CCR5 which are the co-receptors required for HIV entry as target cells for infection. Molecules of interest (including, but not limited to small molecule inhibitors of HIV, neutralizing antibodies of HIV, antibody-drug conjugate inhibitors of HIV, peptide inhibitors of HIV, and various controls) were diluted into tissue culture media and diluted via serial dilution to create a dose range of concentrations. This dose-range was applied to U373 cells and the pre-made pseudotyped virus added. The amount of luciferase signal produced after 3 days of culture was used to reflect the level of pseudotyped virus infection.
Compound,HIV strains/subtypes neutralized (HIV strains/subtypes),"IC50 ([1]; Human immunodeficiency virus 1, NL43, Table 14, first IC50 column (no further heading))","IC50 ([1]; Human immunodeficiency virus 1, NL43, Table 14, second IC50 column (no further heading))","IC50 ([1]; Human immunodeficiency virus 1, NL43, Table 14, third IC50 column (no further heading))"
"VRC01: broadly neutralizing anti-HIV antibody (IgG1) binding gp120, expressed in CHO cells; SEQ ID NO:9-13",90%,,,
"O=C1Nc2ccc(Cl)cc2[C@@](C#CC2CC2)(C(F)(F)F)O1 [EFV, Efavirenz]",,1.9 nM,1.53 nM,1.6 nM

# Reference: patent US20190328900A1, “ANTIBODY-DRUG CONJUGATES AND THERAPEUTIC METHODS USING THE SAME” (priority 2016, published 2019)
